Assay results reported in publication PMC8012336, “An automated and high-throughput-screening compatible pluripotent stem cell-based test platform for developmental and reproductive toxicity assessment of small molecule compounds” (Cell Biology and Toxicology, 2020).
Values after ≈ are worked out from the molar mass of the structure shown.

What was measured:
NIH/3T3 = test system: NIH/3T3; parameters: method as in Scholz et al. [1999]; details: ZEBET value, 7 d result; ref Scholz et al. [1999]; cited from earlier work
[1] = Manual human EST cytotoxicity assay, CellTiter-Glo, 5 d; details: human
Protocol: (§1) The cytotoxicity assessment with a reduced assay time of 5 days combined with either NADH- or ATP-based detection was also carried out with human induced pluripotent stem cells (hiPSCs). […] Furthermore, differences in the cytotoxicity effects between the hiPSCs and HDFfs were more pronounced than in the mouse cells. Similar to the cytotoxicity-based assay the overall variance in the data is reduced when viability data was obtained by an ATP-based read-out.
(§2) 96-well cell culture plates were coated with gelatin (0.1%) before plating mESC-D3. All peripheral wells of the assay plate were filled with 200 μl growth media. In order to assess compound toxicity on mESC-D3 and NIH/3T3 cells, cell suspensions of NIH/3T3, and mESC-D3 were prepared in growth media (1 × 10^4 cells/ml) and were transferred to all remaining wells (50 μl/well). A 7-point dilution series in growth media was prepared for each test compound and was transferred to the assay plate 2 h after cell seeding (150 μl/well). Afterward, the cells were incubated in a humidified atmosphere at 37 °C and 5% CO2. Three and 5 days after seeding the cell supernatant was replaced by freshly prepared compound solution (200 μl/well). Seven days after seeding the assay plate was taken out of the incubator and located at room temperature for 10 min, before cell supernatant was aspirated (80 μl/well) and CellTiter-Glo® reagent was dispensed (50 μl/well). The assay plate was placed on a shaker for 1 min and after another 10 min incubation at room temperature in the dark the luminescence signal was detected on a plate reader.
(§3) Figure S1: Step-wise evolution of the cytotoxicity assay towards the use of human cell lines. Related to Figure 2. Cytotoxicity assays were carried out with two compound sets on hiPSC line ZIPi013-E and HDFf, from which they were derived. […] A) 5 day MTT assay and manual handling. B) As in A), but using CellTiter-Glo® viability assay. All points in the graph represent the mean of 6 individual data points, including the standard error.

[2] = Automated CellTiter-Glo luminescent cell viability (cytotoxicity) assay, 5 d; details: mouse
Protocol: The CellTiter-Glo® luminescent cell viability assay (Promega, Cat. No. G7573) was automated in 96-well format on the lab automation platform Fluent® (Tecan, Männedorf, Switzerland). The procedure allowed the testing of six compounds in mESC-D3 and NIH/3T3 cells in parallel. On the first day, PBS was dispensed into the peripheral wells of the assay plates (200 μl/well) using the Multiple Channel Arm (MCA). Mouse ES-D3 and NIH/3T3 cells were plated (50 μl/well, 1 × 10^4 cells/ml)) using the Flexible Channel Arm (FCA) and transported into the Cytomat™ 10 (Thermo Fisher Scientific) for incubation using the Robotic Gripper Arm (RGA). A 7-point dilution series of the test compounds and control solutions were prepared in PBS or DMSO (Carl Roth, Cat. No. HN47.1) under the laminar flow, transferred to a 96-well 0.5-ml Masterblock plate (Greiner bio-one, Cat. No. 786261) and placed on the worktable. On the Fluent the compounds were transferred to a 96-well 2-ml Masterblock plate (Greiner bio-one, Cat. No. 780271) and further diluted in growth media using the FCA. Two hours after cell plating compounds and controls were transferred to the assay plate with the FCA (150 μl/well) and transported back in the Cytomat 10. On day three of the assay, the media was exchanged using the MCA: old media was aspirated and dispensed into a 96-deep-well plate (“waste”), freshly prepared compound, and control solution was dispensed into the assay plate. After two more days of incubation, the cell viability was determined using the CellTiter-Glo assay. The assay plates were transported from the Cytomat 10 to the Carousel (Tecan) to adapt to room temperature. After 25 min the cell supernatant was removed partially (80 μl/well) and CellTiter-Glo reagent was dispensed (50 μl/well). The assay plate was placed on a shaker for 1 min and afterward incubated 25 min in the Carousel before the Luminescence signal was detected on the Infinite M1000 Pro plate reader (Tecan).
(§4) Toxicity data from the MTT and CellTiter-Glo Assay was normalized against the vehicle control (100% viability) and plotted against the logarithmic compound concentration.

[3] = Manual human EST cytotoxicity assay, MTT, 5 d; details: human
Protocol: as §1
(§5) The MTT cell viability assay was performed as described (Seiler and Spielmann [2011]) with modifications. In brief, 96-well cell culture plates were coated with gelatin (0.1%) before plating mESC-D3. All peripheral wells of the assay plate were filled with 200 μl growth media (“blank”). Afterward, NIH/3T3 and mESC-D3 were plated in growth media (1 × 10^4 cells/ml, 50 μl/well). […] Vehicle (PBS) and positive control (5-fluorouracil) wells were also included on all assay plates. Three and 5 days after seeding the cell supernatant was replaced by freshly prepared compound solution (200 μl/well). Seven days after seeding the cell viability was detected. Therefore, the cell supernatant was aspirated from all wells, MTT solution (5 mg/ml) was added (20 μl/well) and the assay plate was incubated for 2 h at 37 °C and 5% CO2 in a humidified atmosphere. Afterward, all liquid was removed from the wells and MTT desorb solution (0.7% SDS in 2-propanol (Carl Roth, Cat. No. 9866.5), pre-warmed to 37 °C) was dispensed (130 μl/well). The assay plate was placed on a shaker for 15 min. Remaining precipitates were suspended by pipetting up and down with a multichannel pipette before measuring the absorption at 570 nm on a microtiter plate reader using 630 nm as a reference wavelength.
as §3

[4] = Manual CellTiter-Glo luminescent cell viability assay (7 d or 5 d); type: cell-based, mouse; details: mouse, in brackets the two individual experiments
Protocol: as §2, with “Seven days after seeding the assay plate was taken out of the incubator and located at room temperature for 10 min, before cell supernatant was aspirated (80 μl/well) and CellTiter-Glo® reagent was dispensed (50 μl/well).” left out
as §4

[5] = Manual MTT cell viability assay, 7 d; type: cell-based, mouse; details: mouse, manual, in brackets the two individual experiments
Protocol: as §5, §4

mESC-D3 [6] = test system: mESC-D3; parameters: method as in Scholz et al. [1999]; details: ZEBET value printed beside hanging drop differentiation result; ref Scholz et al. [1999]; cited from earlier work
mESC-D3 [7] = test system: mESC-D3; parameters: method as in Scholz et al. [1999]; details: ZEBET value, 7 d result; ref Scholz et al. [1999]; cited from earlier work
mESC-D3 [8] = assay: Conventional mouse ES-D3 differentiation assay in hanging drop format (petri dish; cardiomyocyte contraction, day 10); type: cell-based; details: manual; beating cardiomyocytes at day 10; in brackets the two individual experiments
Protocol: Separate Petri dishes were used for each concentration of test compound, untreated control, and solvent control. […] The EB suspension was incubated for 2 days. On day five of the assay, a fresh compound dilution series was prepared in media and transferred into 24-well cell culture plates (1 ml/well, Greiner bio-one, Cat. No. 662641). A separate 24-well plate was used for each compound concentration, untreated control, and solvent control (24 wells per condition). One EB was transferred from the Petri dish into each well of the 24-well plate. After further 5 days of incubation (= day 10 of the assay), cardiomyocyte contraction was determined in each well under the light microscope.

[9] = test system: mESC-D3 and NIH/3T3 cells; details: manual murine EST assay; prediction model of Seiler and Spielmann 2011
mESC-D3 [10] = type: cell-based, mouse
Protocol: As an alternative to the morphological analysis at day 10, differentiation can be analyzed at day 7 of the assay by flow cytometry using the molecular flow EST (Buesen et al. [2009]). Previously, staining of cardiomyocytes was performed using an unconjugated primary monoclonal antibody directed against the sarcomeric MHC (clone MF20), followed by binding of a secondary biotin-conjugated goat anti-mouse IgG antibody which is then detected with the fluorochrome PE-SA (phycoerythrin-conjugated streptavidin) (Seiler and Spielmann [2011]). […] Of note, these experiments were performed in parallel with the same batch of spontaneously differentiated mESCs.
Embryoid bodies were formed in hanging drops (Petri dish) as already described. On day 5 of the assay, the EBs were transferred into a larger Petri dish and incubated for two more days at 37 °C, 5% CO2, and 95% humidity. Afterward, the EBs were dissociated using the Embryoid Body Dissociation Kit (Miltenyi Biotec, Cat. No. 130-096-348). EBs from two Petri dishes were harvested in one 15 ml tube and washed once with 10 ml PBS. The supernatant was discarded after centrifugation and a pre-warmed enzyme mix was added. The EB/enzyme mix was incubated for 10 min at 37 °C, dissociated for 1 min with a 1000 μl pipette, incubated for 5 min and mechanically dissociated again for 1 min. After the addition of 3 ml PBS, the cell suspension was passed through a 70-μm filter into a new 15-ml tube. The filter was then washed with 3 ml PBS and discarded afterward. The cell suspension was centrifuged for 5 min at 300 rpm. The supernatant was discarded afterward, cells were suspended in PBS and counted. For viability staining, 10^6 cells were suspended in 100 μl staining reagent (LIVE/DEAD™ Fixable Green Dead Stain Kit, Life Technologies, Cat. No. L34969), incubated for 30 min at 4 °C and washed with 1 ml PBS. For fixation, cells were suspended in 100 μl fixation buffer (BioLegend, Cat. No. 420801) and incubated 20 min at room temperature. For the intracellular staining, cells were washed twice with 1 ml permeabilization buffer (BioLegend, Cat. No. 421002) and suspended in 50 μl permeabilization buffer supplemented with 50 μl of pre-diluted (1:5) antibody (mouse IgG2B anti-human Myosin Heavy Chain APC-conjugated, mouse IgG2B APC-conjugated isotype control, R&D Systems, Cat. No. IC4470A). After 1 h incubation at room temperature cells were washed twice with 1 ml permeabilization buffer and suspended in FACS buffer. Within 2–3 h samples were measured on an LSR II flow cytometer (Beckton Dickinson). Data analysis was done using FlowJo software (Version 10.0.8; Tree Star).

[11] = HDFf (human dermal fibroblasts of fetal origin)
[12] = mESC-D3 cells (mouse embryonic stem cells)
[13] = NIH/3T3 cells, read-out: Cytotoxicity assay CTG, 5 d IC50 NIH/3T3
[14] = NIH/3T3 cells, read-out: Cytotoxicity assay CTG, 7 d IC50 NIH/ 3T3
[15] = mESC-D3 cells, read-out: Cytotoxicity assay CTG, 5 d IC50 mESC-D3
[16] = mESC-D3 cells, read-out: Cytotoxicity assay CTG, 7 d IC50 mESC-D3
[17] = NIH/3T3 cells, read-out: Cytotoxicity assay MTT, 7 d IC50 NIH/3T3
[18] = mESC-D3 cells, read-out: Cytotoxicity assay MTT, 7 d IC50 mESC-D3

Row | Compound | IC50 NIH/3T3 (ZEBET) (NIH/3T3) [µg/mL] | IC50 at 5 d [1, 11] [µg/mL] | IC50 at 5 d ([1]; hiPSC line ZIPi013-E) [µg/mL] | IC50 at 5 d ([2]; NIH/3T3 cells) [µg/mL] | IC50 at 5 d [2, 12] [µg/mL] | IC50 at 5 d [3, 11] [µg/mL] | IC50 at 5 d ([3]; hiPSC line ZIPi013-E) [µg/mL] | IC50 at 5 d [4, 13] [µg/mL] | IC50 at 7 d [4, 14] [µg/mL] | IC50 at 5 d [4, 15] [µg/mL] | IC50 at 7 d [4, 16] [µg/mL] | IC50 at 7 d [5, 17] [µg/mL] | IC50 at 7 d [5, 18] [µg/mL] | ID50 mESC-D3 (ZEBET) (mESC-D3 [6]) [µg/mL] | IC50 mESC-D3 (ZEBET) (mESC-D3 [7]) [µg/mL] | Differentiation assay in hanging drop (petri dish) ID50 mESC-D3 (mESC-D3 [8]) | Compound classification [9] | ID50 FACS (MHC-positive cells) (mESC-D3 [10]; flow cytometry, day 7) [µg/mL] | MHC-positive cells (mESC-D3 [10]; treated with 10 μg/ml, untreated 31% (hydroxyurea), 26% (fumonisine B1)) [%]
1 | CC1(C)S[C@@H]2[C@H](NC(=O)Cc3ccccc3)C(=O)N2[C@H]1C(=O)O [Penicillin G, penicillin G] | 1586 (≈ 4740 µM) | 795 (≈ 2380 µM) | > 1000 | > 1000 | > 1000 | 822 (≈ 2460 µM) | 750 (≈ 2240 µM) | 992 (≈ 2970 µM) | > 1000 | > 1000 | > 1000 | > 1000 | > 1000 | 3450 (≈ 10300 µM) | 2950 (≈ 8820 µM) | 1000 (> 1000; > 1000) µg/ml |  |  | 
2 | C[C@@H]1C[C@H]2[C@@H]3CCC4=CC(=O)C=C[C@]4(C)[C@@]3(F)[C@@H](O)C[C@]2(C)[C@@]1(O)C(=O)CO [Dexamethasone, dexamethasone] | 26 (≈ 66.2 µM) |  |  | > 50 | 18.7 (≈ 47.6 µM) |  |  | 34.8 (≈ 88.7 µM) | 35.2 (≈ 89.7 µM) | 15.7 (≈ 40 µM) | 20.8 (≈ 53 µM) | 49.2 (≈ 125 µM) | 23.5 (≈ 59.9 µM) | 18.3 (≈ 46.6 µM) | 23 (≈ 58.6 µM) | 25.7 (29.1; 22.3) µg/ml | weak embryotoxicity |  | 
3 | CCCC[C@@H](C)[C@@H](OC(=O)C[C@@H](CC(=O)O)C(=O)O)[C@H](C[C@@H](C)C[C@H](O)CCCC[C@@H](O)C[C@H](O)[C@H](C)N)OC(=O)C[C@@H](CC(=O)O)C(=O)O [Fumonisin, fumonisine B1] |  |  |  |  |  |  |  |  |  |  |  |  |  |  |  |  |  | 2.26 (≈ 3.13 µM) | 3
4 | O=c1[nH]cc(F)c(=O)[nH]1 [5-Fluorouracil, 5-fluorouracil] | 0.17 (≈ 1.31 µM) | 0.186 (≈ 1.43 µM) | 0.0166 (≈ 0.128 µM) | 0.11 (≈ 0.846 µM) | 0.0627 (≈ 0.482 µM) | 0.195 (≈ 1.5 µM) | 0.223 (≈ 1.72 µM) | 0.0958 (≈ 0.736 µM) | 0.128 (≈ 0.984 µM) | 0.0493 (≈ 0.379 µM) | 0.0681 (≈ 0.524 µM) | 0.116 (≈ 0.892 µM) | 0.0395 (≈ 0.304 µM) | 0.0289 (≈ 0.222 µM) | 0.103 (≈ 0.792 µM) |  | strong embryotoxicity |  | 
5 | Cn1c(=O)c2c(ncn2C)n(C)c1=O [Caffeine, caffeine] |  | 412 (≈ 2120 µM) | 43.6 (≈ 225 µM) |  | 138 (≈ 711 µM) | 358 (≈ 1850 µM) | 13.3 (≈ 68.3 µM) |  |  | 172 (≈ 886 µM) | 119 (≈ 613 µM) |  | 152 (≈ 783 µM) | 185 (≈ 953 µM) |  | 130 (130; > 200) µg/ml |  |  | 
